# Legend:
# Type in all cases: cell-based, Camptotheca acuminata
# Ca32229/CPT11H = test: In vivo yeast biotransformation / substrate scope assay with CPT 11-hydroxylase; conditions: for Conversion rate (%): substrate converted to hydroxylated product, yeast in vivo assay, 1 L culture, calculated based on LCMS analysis; for acceptance as substrate / conversion: substrate scope, Example 4
# From the text: (§1) For heterologous expression of Flag-tagged CYP450s in yeast (Saccharomyces cerevisiae), the full-length coding region of each CYP450 candidate was cloned between SpeI and NcoI restriction sites of MCS1 of the dual plasmid pESC-Leu2d with a cytochrome P450 reductase (CPR) in MCS2 (Dang et al 2018, Nature Chemical Biology 14, 760-763; Rot al 2008, BMC biotechnology 8, 83) yielding pESC-Leu2d::CYP/CPR using In-Fusion cloning system (Takara Clontech). The resulted pESC-Leu2d::CYP/CPR was transformed to the protease-deficient yeast strain YPL 154C:Pep4KO, and yeast harbouring pESC-Leu2d::CPR was used as the negative control. To optimize HCPT production, Δerg6 Δtop1 yeast double mutant strain SMY75-1.4A43 was used, which was previously generated to allow better penetration of, and improved resistance to, topoisomerase I inhibitors such as CPT. The conditions for yeast culture, microsome preparation, and immunoblot analysis are further described below.
# (§2) For screening in vivo CPT oxidation activities, 10 μM CPT was fed to 100-μL, cultures of YPLC 154C:Pep4KO yeast transformed with the vector for 48 h. The culture volume can be scaled up to 2 L with the camptothecin concentration up to 50 μM to produce sufficient products for structural characterization and/or semi-synthesis of camptothecin derivatives. Standard in vitro assays were performed at 30 C for 1 hour in 100 μL of 100 mM HEPES-NaOH (pH 7.5) containing […] of total microsomal proteins, 50 μM substrate (FIGS. 6) and 250 μM NADPH on a gyratory shaker with agitation (750 rpm). Reactions were stopped by adding 800 μL methanol. The reaction mixture was extracted twice with methanol to precipitate and remove proteins. The supernatant was subjected to LC-MS/MS analysis
# (§3) For routine yeast culture, the transgenic yeast strain was inoculated in 2 mL of synthetic complete (SC) medium lacking leucine (SC-Leu) containing 2% (w/v) glucose and cultured overnight at 30 °C and 250 rpm. The culture was subsequently diluted 100-fold to an OD600 of 0.05 in SC-Leu supplemented with 2% (w/v) glucose and cultured for 16 hr. Yeast was then harvested and sub-cultured for 24 hr in YPA medium containing 2% (w/v) galactose to induce the production of recombinant CYP450s. Yeast cells were harvested by centrifugation and lysed for 2 min using a micro-bead beater (VWR) and 500-μm diameter glass beads in TES (0.6 M sorbitol in TE) buffer. The resulting lysate was subsequently centrifuged at 10,000 g for 15 min at 4 C. The supernatant was then transferred to a new tube and centrifuged at 40,000 g for 60 min at 4 C. Finally, the pellet containing microsomes was resuspended with TEG buffer (20% (v/v) glycerol in TE). Expression of Ca32229 and Ca32236 was confirmed by immunoblot analysis of microsomal fractions prepared from S. cerevisiae cultures harbouring the pESC-Leu2d::CPR/Ca32229 and pESC-Leu2d::CPR/Ca32236 vectors using α-FLAG M2 antibodies (ThermoFisher Scientific) detectable with SuperSignal West Pico Chemiluminescent Substrate (ThermoFisher Scientific) to probe epitope-tagged recombinant proteins (FIG. 6).
# (§4) Enzyme assays were analyzed by ultra-performance liquid chromatography (UPLC) on a Xevo TQ-S Cronos Triple Quadrupole Mass Spectrometry (Waters). For all studies, chromatography was performed on an XBridge BEH XP (10×2.1 mm, 1.7 μm) column at a flow rate of 0.6 mL.min−1. The column was equilibrated in solvent A (0.1% formic acid) and the following elution conditions were used: 0 min, 5% B (100% acetonitrile); from 0 to 3.5 min, 35% B; from 3.5 min to 3.75 min, 100% B; 3.75 min to 4.75, 100% B; 4.75 to 6 min, 5% B to re-equilibrate the column. Data were analyzed with MassLynx and TargetLynx (Waters).
# (§5) A calibration curve using camptothecin from 0-50 nM was made for quantification. Peaks areas of LC-MS chromatograms were calculated using MassLynx and TargetLynx from Waters and normalized. […]
# [1] = test system: camptothecin hydroxylases (CPTHs), Ca32236 (CPT 10-hydroxylase) and Ca32229 (CPT 11-hydroxylase); test: In vivo conversion in yeast expressing CPT hydroxylases (enzyme not distinguished); conditions: for acceptance as substrate (substrate specificity, FIG. 9): Ca32236 and Ca32229, different conversion rates; for conversion rate to hydroxylated product, scale-up: 50 μM substrate, after 48-hr inoculation, LCMS
# From the text: as §1, §2
# A calibration curve using camptothecin from 0-50 nM was made for quantification. Peaks areas of LC-MS chromatograms were calculated using MassLynx and TargetLynx from Waters and normalized. The amount of substrate consumption, product formation, conversion, and total product yield was quantified using corresponding calibration curves.
# To generate sufficient amounts of HCPTs (10 and 11HCPT) and 7-ethyl-HCPT (7-ethyl-10 and 11HCPT) for the synthesis of topotecan, irinotecan and other compounds, enzymatic reactions was scaled up. The transgenic yeast strain was inoculated in 2 mL of synthetic complete medium lacking leucine (SC-Leu) containing 2% (w/v) glucose and cultured overnight at 30° C. and 275 rpm. The culture was subsequently diluted to an OD600 of 0.05 in SC-Leu supplemented with 2% (w/v) glucose and cultured for 16 hr. The yeast was then harvested and sub-cultured for 48 hr in YPA medium containing 2% (w/v) galactose, and 10% glycerol to induce the production of recombinant CYP450s. CPT or 7-ethyl-CPT substrate was fed directly into the culture to reach a final concentration of 50 μM as soon as the yeast was switched from SC-Leu to YPA medium. After 48-hr inoculation, a conversion rate of approximately 70% from CPT or 7-ethyl-CPT to its hydroxylated product was obtained and confirmed by LCMS analysis. The supernatant was collected by centrifugation at 4000 rpm, for 5 minutes. HCPT and 7-ethyl-HCPT were extracted out of reaction matrix by liquid-liquid extraction with ethyl acetate and chloroform, respectively. The solvent was removed by using a rotary evaporator to obtain crude HCPT and 7-ethyl-HCPT substrates for chemical synthesis to topotecan and irinotecan. HCPT and 7-ethyl-HCPT were purified by semi-preparative HPLC prior to the synthesis of derivatives.
# A key advantage of the cytochrome P450 monooxygenase enzymes lies in the opportunity to functionalize the inert C—H bond and to further diversify the products to obtain valuable CPT-based scaffolds. […] First, the enzymatic conversion of CPT to HCPTs in yeast expressing CPT hydroxylases was optimized. The initial in vivo conversion rate maximized at 10% (FIG. 2), possibly because CPT is insoluble and the native yeast topoisomerase I is sensitive to CPT. […]
# Ca32236/CPT10H = test: In vivo yeast biotransformation / substrate scope assay with CPT 10-hydroxylase; conditions: for Conversion rate (%): substrate converted to hydroxylated product, yeast in vivo assay, 1 L culture, calculated based on LCMS analysis
# From the text: as §1, §2, §3, §4, §5
Molecule,Conversion rate (%) (Ca32229/CPT11H),acceptance as substrate (Ca32229/CPT11H),conversion (Ca32229/CPT11H) [%],"acceptance as substrate (substrate specificity, FIG. 9) [1]",Conversion rate (%) (Ca32236/CPT10H),"conversion rate to hydroxylated product, scale-up [1]","initial in vivo conversion rate ([1]; CPT to HCPTs, before optimization) [%]",conversion in SMY75-1.4A yeast strain ([1]; SMY75-1.4A (Δerg6 Δtop1) yeast strain),yield (conversion) after growth optimization ([1]; transgenic yeast in YPA medium with 2% galactose and 10% glycerol for 48 hrs),"acceptance as substrate (Ca32236/CPT10H; substrate scope, Example 4)","conversion rate (Ca32236/CPT10H; substrate scope, Example 4) [%]"
"CCC1(O)C(=O)OCc2c1cc1n(c2=O)Cc2cc3cc(O)ccc3nc2-1 (stereo not drawn) [10-HydroxyCPT, 10-hydroxycamptothecin]",11,accepted,7,accepted as substrates,–,–,–,–,–,–,–
"CC[C@@]1(O)C(=O)OCc2c1cc1n(c2=O)Cc2cc3ccccc3nc2-1 [CPT, camptothecin]",62,–,–,accepted as substrates,67,approximately 70%,≤ 10,up to 67%,up to 40%,–,–
"CCc1c2c(nc3ccccc13)-c1cc3c(c(=O)n1C2)COC(=O)[C@]3(O)CC [Compound 7-EthylCPT, 7-ethylcamptothecin]",32,accepted,–,accepted as substrates,8,approximately 70%,–,–,–,accepted,–
"CC[C@@]1(O)C(=O)OCc2c1cc1n(c2=O)Cc2cc3c(N)cccc3nc2-1 [Compound 9-AminoCPT, 9-amino-camptothecin]",9,–,9,accepted as substrates,9,–,–,–,–,–,9
"CCC1(O)C(=O)OCc2c1cc1n(c2=O)Cc2cc3ccc(O)cc3nc2-1 (stereo not drawn) [Compound 11HCPT, 11-hydroxycamptothecin]",–,–,–,–,–,–,–,–,–,not accepted,–
evodiamine,–,–,–,accepted as substrates,–,–,–,–,–,–,–

# From patent US20240084272A1, “CYTOCHROME P450 MONOOXYGENASES AND USES THEREOF” (THE UNIVERSITY OF BRITISH COLUMBIA, priority 2020, published 2024)
